27 molecules from patent US20220232831A1, “NOVEL NON-CODING HETEROCYCLIC AMINO ACIDS (NCHAA) AND THEIR USE AS HERBICIDES” (Fortephest Ltd., priority 2019, published 2022) can be followed below.

In assay [1] the test system is Romaine lettuce (Lactuca sativa L.) plants. Put plainly: Post-emergency herbicidal activity on Romaine lettuce plants. Format: in vivo. Conditions: Romaine lettuce at stage 2 to 3 leaves; compound in 0.1% Silwet, up to 0.5%; visual evaluation vs control plants. Put shortly:
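Plants at the 2 to 3 leaf stage were treated with compound in 0.1% aqueous Silwet at 0.0% (Control) to 0.5%, with 20 to 40 plants per test. Vigor, height and leaf color were scored 0 (dead) to 100 (healthy) at 7, 14 and 21 DAA, and aboveground wet weight was measured.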

Assay [2] relates to Amaranthus blitoides (Pigweed). Put plainly: Herbicidal activity on development of weeds and crops (pot test). It is filed as in vivo. To be noted: 32 days after application, 0 = dead, 100% = healthy. The method, then:
(§1) The experiment included 225 pots. Weed seeds were sawn in 0.3-liter pots, containing medium-heavy clay-loam soil from Newe Ya'ar Research Center organic fields (55% clay, 23% silt, 20% sand, 2% organic matter, pH 7.1). The experiment was conducted in a completely randomized design. Each treatment was replicated 5 times (5 pots). The herbicides were applied at 200 L/ha with a motorized sprayer equipped with a Tee Jet 8001E nozzle (Spraying Systems Co., North Ave., Wheaton, Ill. 60188, USA) and operated at a pressure of 300 kPa. The pots were transferred to a glasshouse 24 hours after herbicide application and were sprinkler irrigated to field capacity of the soil. The plants were grown in the glasshouse during the entire experiment. Plant development at 6, 12, 19, 26 and 32 days after application (DAA) were evaluated on a scale of 0 to 100%, in which 0 represents dead plants and 100% represents healthy plants according to plant vigor, height, and leaf color.
(§2) Phalaris minor (Cannarygrass); Setaria verticillata (Bristlegrass); Solanum nigrum (Black nightshade) Sinapis arvensis (Mustard); Silybum marianum (Thistle); Chenopodium album (Lambsquarter); Amaranthus (Pigweed); Fodder corn; Avena sativa (Cultured oats.
(§3) Plant development was evaluated on a scale of 0 to 100%, in which 0 represents dead plants and 100% represents healthy plants according to plant vigor, height, and leaf color.

Assay [3] deals with Avena sativa (Cultured oats). The description is as above. Format: in vivo. To be noted: Avena sativa (crop); 32 days after application; 0 = dead, 100% = healthy. The method, then: as §1, §2, §3
Assay [4] concerns Chenopodium album (Lambsquarter). Described as above. To be noted: 32 days after application, 0 = dead, 100% = healthy. It is filed as in vivo. The method, then:
as §1, §2, §3

For the next assay, the system named is Fodder Corn. Described as above. Format: in vivo. To be noted: Fodder corn (crop); 32 days after application; 0 = dead, 100% = healthy. How it is done:
as §1, §2, §3

Assay [5] concerns Phalaris minor (Cannarygrass). The description is as above. To be noted: 32 days after application, 0 = dead, 100% = healthy. It is filed as in vivo. How it is done:
as §1, §2, §3

For assay [6], the system named is Setaria verticillata (Bristlegrass). The description is as above. It is filed as in vivo. To be noted: 32 days after application, 0 = dead, 100% = healthy. The method, then:
as §1, §2, §3

Assay [7] deals with Sinapis arvensis (Mustard). The assay is described as above. It is filed as in vivo. Conditions: 32 days after application, 0 = dead, 100% = healthy. The method, then:
as §1, §2, §3

Assay [8] deals with Solanum nigrum (Black nightshade). The assay is described as above. It is filed as in vivo. To be noted: 32 days after application, 0 = dead, 100% = healthy. How it is done: as §1, §2, §3
The next assay relates to Marianum (Thistle). The assay is described as above. Conditions: 32 days after application, 0 = dead, 100% = healthy. It is filed as in vivo, Silybum marianum. The method, then:
as §1, §2, §3

Assay [9] deals with Seeds of Lettuce R. (Super-Jericho). Put plainly: Filter paper bioassay with lettuce seeds (germination and early plant development). It is filed as in vivo. Conditions: lettuce seeds on filter paper; 1, 0.1, 0.01, 0.001 mM; radicle and shoots assessed after 6 days. Put shortly:
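Lettuce seeds (10 per plate) were placed on filter paper with 2.0 ml water or test material at 1, 0.1, 0.01 or 0.001 mM. Plates were kept dark for 48 h, then grown 4 days at 22° C under a 6/18 dark/light cycle. At day 6, radicle and shoot development was scored visually; MEC is the lowest concentration causing deviation from control.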

Take `NC(Cc1cc(Cl)sc1Cl)C(=O)O` (stereo not drawn) [Code 517, 2-amino-3-(2,5-dichlorothiophen-3-yl)propanoic acid]: in assay [1], the “post-emergency herbicidal activity (Activity Index: plant's development vs Control)” value is listed as “Maximal (Less than 15)”. In addition, the “Plants' Development (% of Control group) following treatment with NCHAAs” value in assay [2] was 10%; in assay [3] it was 100%; in assay [4], 10%; in the assay with Fodder Corn it was 90%; in [5], 60%; in assay [6], 100%. Moreover, the “Plants' Development (% of Control group) following treatment with NCHAAs” value is 0% in assay [7], 15% in assay [8] and 35% in the assay with Marianum (Thistle). Moreover, in [9], the “Minimal Effective Concentration (MEC) as activity score, seeds germination & early plants development” value (from here on “Minimal Effective Concentration (MEC)”) is “Maximal (0.01 mM and less)”.

On to `NC(Cc1ccnc(Br)c1)C(=O)O` (stereo not drawn) [Code 632, 2-amino-3-(2-bromopyridin-4-yl)propanoic acid], for which, in assay [1], the “post-emergency herbicidal activity (Activity Index: plant's development vs Control)” value is listed as “Maximal (Less than 15)”. For the same molecule, the “Plants' Development (% of Control group) following treatment with NCHAAs” value in assay [2] turned out to be 100%; in assay [3], 100%; in assay [4], 20%; in the assay on Fodder Corn, 100%; in assay [5] it was 10%; in assay [6], 20%. Also, the “Plants' Development (% of Control group) following treatment with NCHAAs” value in [7] worked out at 80%; in assay [8], 25%; with Marianum (Thistle) it was 15%. For the same molecule, in assay [9], the “Minimal Effective Concentration (MEC)” value is recorded as “Strong (0.1 mM)”.

Take `NC(CNS(=O)(=O)c1ccnc(Br)c1)C(=O)O` (stereo not drawn) [Code 657]: in [1], the “post-emergency herbicidal activity (Activity Index: plant's development vs Control)” value is listed as “Weak (More than 75)”. The “Minimal Effective Concentration (MEC)” value in assay [9] was “Weak (More than 1 mM)”.

With `CCCOC(=O)C(N)CNS(=O)(=O)c1ccnc(Br)c1` (stereo not drawn) [Code 658], the “post-emergency herbicidal activity (Activity Index: plant's development vs Control)” value in [1] is given as “Weak (More than 75)”. For the same molecule, the “Minimal Effective Concentration (MEC)” value in assay [9] is reported as “Weak (More than 1 mM)”.

Take `CCOC(=O)C(N)Cc1cnc(Br)c(Br)c1` (stereo not drawn) [Code 661]: in [1], the “post-emergency herbicidal activity (Activity Index: plant's development vs Control)” value is “Moderate (From 50 to 75)”. The “Minimal Effective Concentration (MEC)” value in assay [9] was “Maximal (0.01 mM and less)”.

With `CCOC(=O)C(N)Cc1ccnc(Br)c1Br` (stereo not drawn) [Code 662], in assay [1], the “post-emergency herbicidal activity (Activity Index: plant's development vs Control)” value is “Moderate (From 50 to 75)”. Further, the “Minimal Effective Concentration (MEC)” value in assay [9] was “Strong (0.1 mM)”.

With `NC(Cc1cc(C(F)(F)F)cnc1Cl)C(=O)O` (stereo not drawn) [Code 663], in assay [1], the “post-emergency herbicidal activity (Activity Index: plant's development vs Control)” value is listed as “Moderate (From 50 to 75)”. The “Minimal Effective Concentration (MEC)” value in [9] is recorded as “Strong (0.1 mM)”.

Turning to `Nc1ncc(CC(N)C(=O)O)c(=O)[nH]1` (stereo not drawn) [Code 664], in [1], the “post-emergency herbicidal activity (Activity Index: plant's development vs Control)” value is recorded as “Weak (More than 75)”. The “Minimal Effective Concentration (MEC)” value in [9] is “Moderate (1 mM)”.

Consider `NC(Cc1cnc(O)c([N+](=O)[O-])c1)C(=O)O` (stereo not drawn) [Code 665], for which the “post-emergency herbicidal activity (Activity Index: plant's development vs Control)” value in assay [1] is listed as “Weak (More than 75)”. Moreover, in assay [9], the “Minimal Effective Concentration (MEC)” value is recorded as “Moderate (1 mM)”.

As to `COC(=O)C(N)Cc1ccnc(Br)c1` (stereo not drawn) [Code 666], in [1], the “post-emergency herbicidal activity (Activity Index: plant's development vs Control)” value is reported as “Maximal (Less than 15)”. Moreover, the “Minimal Effective Concentration (MEC)” value in assay [9] was “Strong (0.1 mM)”.

As for `C[n+]1cccc(CC(N)C(=O)O)c1` (stereo not drawn) [Code 667], the “post-emergency herbicidal activity (Activity Index: plant's development vs Control)” value in assay [1] is “Weak (More than 75)”. Also, the “Minimal Effective Concentration (MEC)” value in assay [9] is listed as “Weak (More than 1 mM)”.

Turning to `NC(Cc1ccc[n+](O)c1)C(=O)O` (stereo not drawn) [Code 668], the “post-emergency herbicidal activity (Activity Index: plant's development vs Control)” value in [1] is “Weak (More than 75)”. Further, the “Minimal Effective Concentration (MEC)” value in assay [9] is given as “Weak (More than 1 mM)”.

Take `Cc1nc(N)c(CC(N)C(=O)O)c(O)n1` (stereo not drawn) [Code 669]: in assay [1], the “post-emergency herbicidal activity (Activity Index: plant's development vs Control)” value is “Weak (More than 75)”. In addition, the “Minimal Effective Concentration (MEC)” value in assay [9] is given as “Weak (More than 1 mM)”.

As for `COC(=O)C(N)Cc1cc(Br)nc(Br)c1` (stereo not drawn) [Code 670], the “post-emergency herbicidal activity (Activity Index: plant's development vs Control)” value in assay [1] is given as “Very Strong (From 15 to 25)”. In addition, the “Minimal Effective Concentration (MEC)” value in assay [9] is reported as “Strong (0.1 mM)”.

Take `CCOC(=O)C(Cc1ccc(Br)nc1)NC(C)=O` (stereo not drawn) [Code 671]: the “post-emergency herbicidal activity (Activity Index: plant's development vs Control)” value in [1] was “Weak (More than 75)”. In [9], the “Minimal Effective Concentration (MEC)” value is “Strong (0.1 mM)”.

On to `COC(=O)C(Cc1ccc(Br)nc1)NC(C)=O` (stereo not drawn) [Code 672], for which the “post-emergency herbicidal activity (Activity Index: plant's development vs Control)” value in assay [1] is given as “Moderate (From 50 to 75)”. Further, in assay [9], the “Minimal Effective Concentration (MEC)” value is “Strong (0.1 mM)”.

Turning to `CCOC(=O)C(Cc1ccnc(OC)n1)NC(C)=O` (stereo not drawn) [Code 673], the “post-emergency herbicidal activity (Activity Index: plant's development vs Control)” value in assay [1] is listed as “Weak (More than 75)”. In [9], the “Minimal Effective Concentration (MEC)” value was “Weak (More than 1 mM)”.

Take `COCCOCCOC(=O)C(N)Cc1ccc(Br)nc1` (stereo not drawn) [Code 674]: in assay [1], the “post-emergency herbicidal activity (Activity Index: plant's development vs Control)” value was “Moderate (From 50 to 75)”. Moreover, the “Minimal Effective Concentration (MEC)” value in assay [9] was “Strong (0.1 mM)”.

Consider `CCOCCOCCOC(=O)C(N)Cc1ccc(Br)nc1` (stereo not drawn) [Code 675], for which the “post-emergency herbicidal activity (Activity Index: plant's development vs Control)” value in assay [1] is “Moderate (From 50 to 75)”. In addition, the “Minimal Effective Concentration (MEC)” value in assay [9] is listed as “Strong (0.1 mM)”.

Consider `C[n+]1cncc(CC(N)C(=O)O)c1` (stereo not drawn) [Code 676], for which, in assay [1], the “post-emergency herbicidal activity (Activity Index: plant's development vs Control)” value is given as “Very Strong (From 15 to 25)”. Further, the “Minimal Effective Concentration (MEC)” value in assay [9] was “Moderate (1 mM)”.

For the molecule `Cl.NC(Cc1ccnc(C(F)(F)F)c1)C(=O)O` (stereo not drawn) [Code 679], the “post-emergency herbicidal activity (Activity Index: plant's development vs Control)” value in assay [1] is listed as “Strong (From 25 to 50)”. Moreover, the “Minimal Effective Concentration (MEC)” value in assay [9] is “Strong (0.1 mM)”.

`NC(CCc1cc[nH]c1)C(=O)O` (stereo not drawn) [Code 702]: the “post-emergency herbicidal activity (Activity Index: plant's development vs Control)” value in assay [1] is “Weak (More than 75)”. Also, the “Minimal Effective Concentration (MEC)” value in [9] was “Weak (More than 1 mM)”.

In the case of `NC(Cc1ccc[nH]1)C(=O)O` (stereo not drawn) [Code 703], in assay [1], the “post-emergency herbicidal activity (Activity Index: plant's development vs Control)” value was “Weak (More than 75)”. Besides, in assay [9], the “Minimal Effective Concentration (MEC)” value was “Weak (More than 1 mM)”.

Regarding `NC(Cc1cc[nH]c1)C(=O)O` (stereo not drawn) [Code 704], the “post-emergency herbicidal activity (Activity Index: plant's development vs Control)” value in assay [1] is “Weak (More than 75)”. For the same molecule, in [9], the “Minimal Effective Concentration (MEC)” value is “Weak (More than 1 mM)”.

Take `NC(Cc1nnc[nH]1)C(=O)O` (stereo not drawn) [Code 709]: the “post-emergency herbicidal activity (Activity Index: plant's development vs Control)” value in assay [1] is “Maximal (Less than 15)”. Further, the “Minimal Effective Concentration (MEC)” value in assay [9] is given as “Moderate (1 mM)”.

For the molecule `O=C(O)[C@@H](O)Cc1c[nH]cn1` [Code 710], the “post-emergency herbicidal activity (Activity Index: plant's development vs Control)” value in [1] is reported as “Weak (More than 75)”. Besides, the “Minimal Effective Concentration (MEC)” value in [9] was “Weak (More than 1 mM)”.

For the molecule `CCOC(=O)C(Cc1nc[nH]n1)NC(=O)OCc1ccccc1` (stereo not drawn) [Code 714], the “post-emergency herbicidal activity (Activity Index: plant's development vs Control)” value in assay [1] is on record as “Weak (More than 75)”. In assay [9], the “Minimal Effective Concentration (MEC)” value was “Moderate (1 mM)”.
